One block for each compound: values may come before it.
Columns and labels:
[1] = Superoxide dismutase activity, xanthine-xanthine oxidase / cytochrome C; assay type: biochemical; settings: reciprocal of IC50; xanthine 60 μM, xanthine oxidase 0.009 units/ml, cytochrome C 27.8 μM
Method: Superoxide Dismutase Activity was measured by incubating the compound with a superoxide generating system (Xanthine, 60 μM-Xanthine Oxidase, 0.009 units/ml) and a detector molecule (Cytochrome C, 27.8 μM). Upon reacting with a molecule of superoxide, Cytochrome C undergoes a spectrum-shift which can be detected as an increase in absorbance at 550 nm. In this assay procedure, the reactant concentrations were adjusted to give a reaction rate close to 0.1 AU/min. at 2-3 min. after the reaction began. Addition of compounds with Superoxide Dismutase activity reduce the rate of absorbance change. Compounds were assayed at several concentrations (typically at 0, 2, 4, and 8 μM) and the resulting rates were graphed and fitted to a linear regression formula. The linear regression formula was then solved to determine the concentration of compound required to reduce the reaction rate to 50% of the rate without compound present (IC50).

[2] = Peroxidase activity, ABTS oxidation; assay type: biochemical; settings: 10 μM compound, 200 μM hydrogen peroxide, 500 μM ABTS, pH 8.1, 740 nm
Method: Peroxidase activity was measured by incubating 10 μM compound, 200 μM hydrogen peroxide and 500 μM ABTS in 50 mM sodium phosphate, pH 8.1. The rate of ABTS oxidation was monitored at 740 nm and initial rates (change in absorbance per min.) determined.

[3] = Catalase activity, hydrogen peroxide consumed at 20 minutes; assay type: biochemical; settings: over 20 minutes; 10 μM compound, 100 μM hydrogen peroxide, 40 mM sodium phosphate pH 7.4
Method: (§1) Catalase activity was measured by incubating the sample compound with hydrogen peroxide and determining the amount of hydrogen peroxide remaining after a period of time using a colorimetric peroxidase-coupled assay method. 10 μM sample compound and 100 μM hydrogen peroxide in 40 mM sodium phosphate pH 7.4 were incubated together at ambient temperature in a multi-well plate. After the desired reaction period had elapsed, 20 μl of peroxidase/ABTS reagent was added (peroxidase/ABTS reagent contained 100 μl of 50 mM Na phosphate, pH 7.4, 1 mg horseradish peroxidase (1310 U/mg) and […]). After five minutes, absorbance at 750 nm was determined. The amount of hydrogen peroxide remaining was calculated based on a standard curve. To compare rates of catalase reaction, the amount of hydrogen peroxide consumed at 20 minutes was determined (See table III). It was also of interest to determine the total number of turnovers completed by the compound before inactivation by hydrogen peroxide. This was assayed under similar conditions, except that 15.8 μM compound was combined with 1582 μM hydrogen peroxide in 5 mM Na phosphate, pH 7.4. Reactions were allowed to proceed to completion and then the amount of hydrogen peroxide remaining was determined as described above. Results showing […] in the turnover assay (nmoles hydrogen peroxide per nmole compound) are also shown in Table III.

[4] = Catalase turnover assay, total hydrogen peroxide consumed before inactivation; assay type: biochemical; settings: to completion, 15.8 μM compound, 1582 μM hydrogen peroxide, 5 mM Na phosphate pH 7.4
Method: as §1

[5] = system: CBA/J female mice, oxazolone-induced inflammatory ear edema; assay: Delayed type hypersensitivity: oxazolone-induced ear edema; assay type: in vivo
Excerpt: CBA/J female mice (Jackson Labs, Bar Harbor, ME) 7 weeks of age were pre-sensitized with 3% oxazolone (Sigma Chemical Co., St. Louis, Mo.) in 99.9% acetone, on the abdomen. After 8 days, the mice were challenged with 1.2% oxazolone topically on one ear to induce an inflammatory edema. Either Structural Formula V, Structural Formula IV at a dose of 7 nmoles/ear each, or ethanol, i.e. vehicle control (eight mice per study group), was applied topically to the ear immediately after the oxazolone challenge. Ear edema was measured by comparing the tissue water content (the wet weight minus the dry weight) of the challenged ear to that of the control ear. The percent edema (% water in the right ear-left ear) in the vehicle control was 6.5% and 2.1% and 3.9% for Structural Formula V and Structural Formula IV, respectively at a dose of 7 nmoles/ear.

Structure (SMILES): O=C(O)c1ccc(-c2c3nc(c(-c4ccc(C(=O)O)cc4)c4ccc([n-]4)c(-c4ccc(C(=O)O)cc4)c4nc(c(-c5ccc(C(=O)O)cc5)c5ccc2[n-]5)C=C4)C=C3)cc1.[Mn+3] [MnTBAP, Mn(III) tetrakis (4-benzoic acid) porphyrin, reference compound]
Cyt C SOD 1/(IC50, μM) [1]: 0.015 µM⁻¹ | PEROXIDASE Initial Rate [2]: 0.0304 change in absorbance per min. | CATALASE* Rate at 20 mins. [3]: 0.4 nmole H2O2/nmole Structural Formula compound | CATALASE** H2O2 Consumption [4]: 38.5 nmole H2O2/nmole Structural Formula compound

Cyt C SOD 1/(IC50, μM) [1]: 0.034 µM⁻¹
Structure (SMILES): CC[NH+](CC)CCNS(=O)(=O)c1ccc(C2=C3C=CC4=[N+]3[Mn-]35[n]6c2ccc6C(c2ccc(S(=O)(=O)NCC[NH+](CC)CC)cc2)=C2C=CC(=[N+]23)C(c2ccc(S(=O)(=O)NCC[NH+](CC)CC)cc2)=c2ccc([n]25)=C4c2ccc(S(=O)(=O)NCC[NH+](CC)CC)cc2)cc1.[Cl-].[Cl-].[Cl-].[Cl-].[Cl-] [Structural Formula II, meso-tetrakis[4-(N-(2-(N,N-diethylammonio)ethyl)aminosulfonyl)phenyl]porphyrinato diaqua-manganese (III) pentachloride]
PEROXIDASE Initial Rate [2]: 0.0151 change in absorbance per min. | CATALASE* Rate at 20 mins. [3]: 1.6 nmole H2O2/nmole Structural Formula compound | CATALASE** H2O2 Consumption [4]: 42.4 nmole H2O2/nmole Structural Formula compound

Cyt C SOD 1/(IC50, μM) [1]: 0.045 µM⁻¹
Structure (SMILES): CC[NH+](CC)CCNS(=O)(=O)c1ccc(-c2c3nc(c(-c4ccc(S(=O)(=O)NCC[NH+](CC)CC)cc4)c4ccc([n-]4)c(-c4ccc(S(=O)(=O)NCC[NH+](CC)CC)cc4)c4nc(c(-c5ccc(S(=O)(=O)NCC[NH+](CC)CC)cc5)c5ccc2[n-]5)C=C4)C=C3)cc1.O.O.[Cl-].[Cl-].[Cl-].[Cl-].[Cl-].[Fe+3] [Structural Formula III, meso-tetrakis[4-(N-(2-(N,N-diethylammonio)ethyl)aminosulfonyl)phenyl]porphyrinato diaqua-iron (III) pentachloride]
PEROXIDASE Initial Rate [2]: 0.0363 change in absorbance per min. | CATALASE* Rate at 20 mins. [3]: 0.3 nmole H2O2/nmole Structural Formula compound | CATALASE** H2O2 Consumption [4]: 4.7 nmole H2O2/nmole Structural Formula compound

Cyt C SOD 1/(IC50, μM) [1]: 0.043 µM⁻¹
Structure (SMILES): CC[NH+](CC)CCNS(=O)(=O)c1c(C)cc(C)c(C2=C3C=CC4=[N+]3[Mn-]35[n]6c2ccc6C(c2c(C)cc(C)c(S(=O)(=O)NCC[NH+](CC)CC)c2C)=C2C=CC(=[N+]23)C(c2c(C)cc(C)c(S(=O)(=O)NCC[NH+](CC)CC)c2C)=c2ccc([n]25)=C4c2c(C)cc(C)c(S(=O)(=O)NCC[NH+](CC)CC)c2C)c1C.[Cl-].[Cl-].[Cl-].[Cl-].[Cl-] [Structural Formula IV, meso-tetrakis[3-(N-(2-(N,N-diethylammonio)ethyl)aminosulfonyl)-2,4,6-trimethylphenyl]porphyrinato diaqua-manganese (III) pentachloride]
PEROXIDASE Initial Rate [2]: 0.021 change in absorbance per min. | effect on edema compared to vehicle ([5]; 7 nmoles/ear topically): effective in reducing the percentage of edema | percent edema (% water in the right ear-left ear) ([5]; 7 nmoles/ear topically immediately after oxazolone challenge, vehicle control 6.5%): 3.9% | CATALASE* Rate at 20 mins. [3]: 1.0 nmole H2O2/nmole Structural Formula compound | CATALASE** H2O2 Consumption [4]: 189.9 nmole H2O2/nmole Structural Formula compound

Structure (SMILES): CC(=O)[O-].CC(=O)[O-].CC(=O)[O-].CC(=O)[O-].CC(=O)[O-].CC[N+](C)(CC)CCNS(=O)(=O)c1ccc(-c2c3nc(c(-c4ccc(S(=O)(=O)NCC[N+](C)(CC)CC)cc4)c4ccc([n-]4)c(-c4ccc(S(=O)(=O)NCC[N+](C)(CC)CC)cc4)c4nc(c(-c5ccc(S(=O)(=O)NCC[N+](C)(CC)CC)cc5)c5ccc2[n-]5)C=C4)C=C3)cc1.O.O.[Mn+3] [Structural Formula VI, meso-tetrakis[4-(N-(2-(N,N,N-diethylmethylammonio)ethyl)aminosulfonyl)phenyl]porphyrinato diaqua-manganese (III) pentaacetate]
Cyt C SOD 1/(IC50, μM) [1]: 0.041 µM⁻¹ | PEROXIDASE Initial Rate [2]: 0.0011 change in absorbance per min. | CATALASE* Rate at 20 mins. [3]: 2.4 nmole H2O2/nmole Structural Formula compound | CATALASE** H2O2 Consumption [4]: 42 nmole H2O2/nmole Structural Formula compound

Structure (SMILES): CC(=O)[O-].CC(=O)[O-].CC(=O)[O-].CC(=O)[O-].CC(=O)[O-].CC[N+](C)(CC)CCNS(=O)(=O)c1c(C)cc(C)c(-c2c3nc(c(-c4c(C)cc(C)c(S(=O)(=O)NCC[N+](C)(CC)CC)c4C)c4ccc([n-]4)c(-c4c(C)cc(C)c(S(=O)(=O)NCC[N+](C)(CC)CC)c4C)c4nc(c(-c5c(C)cc(C)c(S(=O)(=O)NCC[N+](C)(CC)CC)c5C)c5ccc2[n-]5)C=C4)C=C3)c1C.O.O.[Mn+3] [Structural Formula VII, meso-tetrakis[3-(N-(2-(N,N,N-diethylmethylammonio)ethyl)aminosulfonyl)-2,4,6-trimethylphenyl]porphyrinato diaqua-manganese (III) pentaacetate]
Cyt C SOD 1/(IC50, μM) [1]: 0.013 µM⁻¹ | PEROXIDASE Initial Rate [2]: 0.0025 change in absorbance per min. | CATALASE* Rate at 20 mins. [3]: 1.3 nmole H2O2/nmole Structural Formula compound | CATALASE** H2O2 Consumption [4]: 166.6 nmole H2O2/nmole Structural Formula compound

Source: US6403788B1, “Non-genotoxic metalloporphyrins as synthetic catalytic scavengers of reactive oxygen species” (Eukarion, Inc., priority 2000, dated 2002)
